According to PubChem BioAssay (NCI):
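Cultured in 96-well plates, cells were exposed to test compound for 48 hours across five concentrations. TGI: concentration producing complete growth inhibition.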

What was measured:
Experiment in all cases: NCI tumour cell line growth inhibition, 48 h
[1] = system: UO-31 renal
[2] = system: EKVX NSCLC
[3] = system: SF-539 CNS
[4] = system: HL-60(TB) leukemia
[5] = system: A549 NSCLC
[6] = system: HOP-92 NSCLC
[7] = system: SF-268 CNS
[8] = system: NCI/ADR-RES ovarian
[9] = system: KM12 colon
[10] = system: OVCAR-3 ovarian
[11] = system: SK-MEL-28 melanoma
[12] = system: LOX IMVI melanoma
[13] = system: SR leukemia
[14] = system: PC-3 prostate
[15] = system: ACHN renal
[16] = system: T-47D breast
[17] = system: 786-0 renal
[18] = system: A498 renal
[19] = system: HCC-2998 colon
[20] = system: HOP-62 NSCLC

In the case of `Cc1cnc2c(c1)C(=O)N(c1ccc([N+](=O)[O-])cc1)S2(=O)=O`, the TGI [1] is reported as > 100 µM, the TGI [2] is reported as > 100 µM and the TGI [3] is reported as > 100 µM. The TGI [4] was > 100 µM, the TGI [5] was > 100 µM and the TGI [6] was > 100 µM. The TGI [7] was > 100 µM, the TGI [8] was > 100 µM and the TGI [9] was > 100 µM. For the same compound, the TGI [10] was > 100 µM, the TGI [11] was > 100 µM and the TGI [12] was > 100 µM. The TGI [13] was 99.2 µM, the TGI [14] was > 100 µM and the TGI [15] was > 100 µM. For the same compound, the TGI [16] was > 100 µM, the TGI [17] was > 100 µM and the TGI [18] was > 100 µM. For the same compound, the TGI [19] was > 100 µM and the TGI [20] was > 100 µM.
With `CCN(CC)C(=S)N/N=C/c1cc(OC)ccc1O` the TGI [1] was 6.12 µM, the TGI [2] was > 100 µM and the TGI [3] was 36 µM. For the same compound, the TGI [4] was 7.44 µM, the TGI [5] was > 100 µM and the TGI [7] was 11.3 µM. The TGI [8] was 40.4 µM, the TGI [9] was > 100 µM and the TGI [10] was > 100 µM. For the same compound, the TGI [11] was > 100 µM, the TGI [12] was 12.5 µM and the TGI [13] was 8.9 µM. The TGI [14] was > 100 µM, the TGI [15] was > 100 µM and the TGI [16] was > 100 µM. For the same compound, the TGI [17] was > 100 µM, the TGI [18] was 18 µM and the TGI [19] was 27.8 µM. The TGI [20] was > 100 µM.
With `S=C(Nc1ccc2c(c1)oc1ccccc12)c1cccs1` the TGI [1] was > 100 µM, the TGI [2] was > 100 µM and the TGI [3] was > 100 µM. For the same compound, the TGI [4] was > 100 µM, the TGI [5] was > 100 µM and the TGI [6] was > 100 µM. The TGI [7] was > 100 µM, the TGI [8] was > 100 µM and the TGI [10] was > 100 µM. The TGI [11] was > 100 µM, the TGI [12] was > 100 µM and the TGI [13] was > 100 µM. For the same compound, the TGI [14] was > 100 µM, the TGI [15] was > 100 µM and the TGI [16] was > 100 µM. For the same compound, the TGI [17] was 68.9 µM, the TGI [18] was > 100 µM and the TGI [19] was > 100 µM. The TGI [20] was > 100 µM.
`Cc1cccc(N=C/C=C(\Cl)c2ccc3ccccc3c2)c1` was tested, and the TGI [1] was 34.4 µM, the TGI [2] was > 100 µM and the TGI [3] was 40.7 µM. The TGI [4] was 38.5 µM, the TGI [5] was > 100 µM and the TGI [6] was > 62.3 µM. The TGI [7] was > 79.4 µM, the TGI [8] was 47.7 µM and the TGI [9] was 41 µM. The TGI [10] was 32.3 µM, the TGI [11] was 63.6 µM and the TGI [12] was 9.27 µM. The TGI [13] was 8.24 µM, the TGI [14] was 53.1 µM and the TGI [15] was 30.7 µM. For the same compound, the TGI [16] was 37.2 µM, the TGI [17] was 34.9 µM and the TGI [18] was > 100 µM. The TGI [20] was 35.4 µM.
With `O=C1CCSc2nc(-c3ccc4c(c3)OCO4)nn21` the TGI [2] was > 10 µM, the TGI [3] was > 10 µM and the TGI [4] was > 10 µM. The TGI [5] was > 10 µM, the TGI [6] was > 10 µM and the TGI [7] was > 10 µM. For the same compound, the TGI [8] was > 10 µM, the TGI [9] was > 10 µM and the TGI [10] was > 10 µM. The TGI [11] was > 10 µM, the TGI [12] was > 10 µM and the TGI [13] was > 10 µM. For the same compound, the TGI [14] was > 10 µM, the TGI [15] was > 10 µM and the TGI [16] was > 10 µM. For the same compound, the TGI [17] was > 10 µM, the TGI [18] was > 10 µM and the TGI [19] was > 10 µM. For the same compound, the TGI [20] was > 10 µM.
For `CCOC(=O)C1(C#N)C(C#N)(C#N)C1(C#N)C#N`, the TGI [1] was > 100 µM, the TGI [2] was > 100 µM and the TGI [4] was > 100 µM. For the same compound, the TGI [5] was > 100 µM, the TGI [6] was > 100 µM and the TGI [7] was > 100 µM. The TGI [8] was > 100 µM, the TGI [9] was > 100 µM and the TGI [11] was > 100 µM. The TGI [12] was > 100 µM, the TGI [13] was > 100 µM and the TGI [14] was > 100 µM. For the same compound, the TGI [15] was > 100 µM, the TGI [16] was > 100 µM and the TGI [17] was > 100 µM. For the same compound, the TGI [18] was > 100 µM, the TGI [19] was > 100 µM and the TGI [20] was > 100 µM.
With `CC(C)CC(NC=O)C(=O)NC(Cc1ccccc1)NC(=O)CNC(=O)C(C)NC(=O)C(N)Cc1ccc(O)cc1` (centres undefined) the TGI [1] was > 100 µM, the TGI [2] was > 100 µM and the TGI [3] was > 100 µM. For the same compound, the TGI [4] was > 100 µM, the TGI [5] was > 100 µM and the TGI [6] was > 100 µM. The TGI [7] was > 100 µM, the TGI [8] was > 100 µM and the TGI [9] was > 100 µM. For the same compound, the TGI [10] was > 100 µM, the TGI [11] was > 100 µM and the TGI [12] was > 100 µM. The TGI [13] was > 100 µM, the TGI [14] was > 100 µM and the TGI [15] was > 100 µM. For the same compound, the TGI [16] was > 100 µM, the TGI [17] was > 100 µM and the TGI [18] was > 100 µM. For the same compound, the TGI [20] was > 100 µM.
For `CC(=O)O[C@H]1CC[C@@]2(C)C(=CC[C@@H]3[C@@H]2CC[C@](C)(c2nnc(C)o2)[C@H]3CC#N)C1`, the TGI [1] was > 100 µM, the TGI [2] was > 100 µM and the TGI [3] was > 100 µM. For the same compound, the TGI [4] was > 100 µM, the TGI [5] was > 100 µM and the TGI [6] was > 100 µM. The TGI [7] was > 100 µM, the TGI [8] was > 100 µM and the TGI [9] was > 100 µM. For the same compound, the TGI [10] was > 100 µM, the TGI [12] was > 100 µM and the TGI [13] was > 100 µM. For the same compound, the TGI [14] was > 100 µM, the TGI [15] was > 100 µM and the TGI [16] was > 100 µM. For the same compound, the TGI [17] was > 100 µM, the TGI [18] was > 100 µM and the TGI [20] was > 100 µM.
For `Cn1nc(-c2ccccc2)c2c(-c3ccccc3)c3cc(Cl)ccc3nc21`, the TGI [1] was > 100 µM, the TGI [2] was > 100 µM and the TGI [4] was > 100 µM. The TGI [5] was > 100 µM, the TGI [6] was > 25 µM and the TGI [7] was > 100 µM. The TGI [8] was > 25.7 µM, the TGI [9] was > 100 µM and the TGI [10] was > 100 µM. For the same compound, the TGI [11] was > 100 µM, the TGI [12] was > 100 µM and the TGI [13] was > 100 µM. For the same compound, the TGI [14] was > 100 µM, the TGI [15] was > 100 µM and the TGI [16] was > 100 µM. For the same compound, the TGI [17] was > 100 µM, the TGI [18] was > 100 µM and the TGI [19] was > 100 µM. The TGI [20] was > 100 µM.
For `Cc1cc(C)c(S(=O)(=O)N(CCCN)OCCON(CCCN)S(=O)(=O)c2c(C)cc(C)cc2C)c(C)c1`, the TGI [1] was 58.7 µM, the TGI [2] was 20.6 µM and the TGI [4] was > 21.9 µM. The TGI [5] was > 100 µM, the TGI [6] was > 21.6 µM and the TGI [7] was 5.37 µM. It also gave a TGI [8] of 46.6 µM, a TGI [9] of 4.49 µM and a TGI [10] of 3.93 µM. The TGI [11] was 31 µM, the TGI [12] was > 100 µM and the TGI [13] was > 100 µM. For the same compound, the TGI [14] was 4.02 µM, the TGI [15] was 66.1 µM and the TGI [16] was > 45.1 µM. For the same compound, the TGI [17] was 13.1 µM, the TGI [18] was 53.9 µM and the TGI [19] was 4.24 µM. For the same compound, the TGI [20] was 11.5 µM.
